In one test the test system is Johnsongrass. Kind of test: Post emergent treatment of plots with abundant Johnsongrass growth, % control (Example 1). It counts as in vivo, Sorghum halepense. Here is the method: In order to determine the efficacy of combinations of clethodim and GA3, numerous treatments were applied to plots in an area with abundant Johnsongrass growth.
The percent control of Johnsongrass plants was evaluated at 7, 18 and 28 days following the treatment. Effect of Clethodim and GA3 Treatments on Johnsongrass (% control).”
The percent control refers to the amount of dead tissue on the plants present. It would be dead plants plus desiccated foliage on partially killed plants.

For test [1], the system named is Glyphosate resistant corn. The test can be described thus: Clethodim and GA3 treatments on planted glyphosate resistant corn, % control (Example 2). The test is classed as in vivo. The method, then:
A further study was performed in order to confirm the effect clethodim and GA3 treatments have on corn. Glyphosate resistant corn was planted with a conventional four-row planter. Treatments were applied 28 days after the plantings.
The percent corn control was evaluated at […] days following the treatments. Effect of Clethodim and GA3 Treatments on corn (% control).

With `CCSC(C)CC1CC(=O)C(C(CC)=NOC/C=C/Cl)=C(O)C1` (centres unmarked) [Clethodim, 2-[1-[[[(2E)-3-chloro-2-propen-1-yl]oxy]imino]propyl]-5-[2-(ethylthio)propyl]-3-hydroxy-2-cyclohexen-1-one], in the test with Johnsongrass (Clethodim 32 x g ai/a (9 fl oz/a of Selectmax), 0.25% v/v non-ionic surfactant and 2.5 lb/acre AMS, 7 DAT), the “Johnsongrass % control 7 DAT” value worked out at 37.21%. In the test with Johnsongrass (Clethodim 32 x g ai/a (9 fl oz/a of Selectmax), 0.25% v/v non-ionic surfactant and 2.5 lb/acre AMS, 18 DAT), the “Johnsongrass % control 18 DAT” value is 85.66%. The “Johnsongrass % control 28 DAT” value in the test on Johnsongrass (Clethodim 32 x g ai/a (9 fl oz/a of Selectmax), 0.25% v/v non-ionic surfactant and 2.5 lb/acre AMS, 28 DAT) was found to be 89.26%. In test [1] (Clethodim 32 gm ai/a, 0.25% v/v non-ionic surfactant and 2.5 lb/acre ammonium sulfate, 6 DAT), the “Corn % control 6 DAT” value is given as 48.33%. For the same compound, the “Corn % control 13 DAT” value in test [1] (Clethodim 32 gm ai/a, 0.25% v/v non-ionic surfactant and 2.5 lb/acre ammonium sulfate, 13 DAT) was 88.33%. In addition, the “Corn % control 29 DAT” value in test [1] (Clethodim 32 gm ai/a, 0.25% v/v non-ionic surfactant and 2.5 lb/acre ammonium sulfate, 29 DAT) stood at 96.00%.
On to `C=C1C[C@]23C[C@@]1(O)CC[C@H]2[C@@]12C=C[C@H](O)[C@@](C)(C(=O)O1)[C@H]2[C@@H]3C(=O)O` [GA3, Gibberellic acid], for which the “Effect of GA3 on the activity of clethodim on Johnsongrass” value in the test with Johnsongrass (seven days following treatment, versus clethodim alone) is given as “more than doubles”. For the same compound, in test [1] (presence of GA3), the “Effect of GA3 on the activity of clethodim on corn” value is “significantly increased”.

The record behind these values is US8906828B2, “Compositions and methods for post emergent weed control with clethodim and gibberellic acid” (Valent U.S.A. Corporation, priority 2012, dated 2014).
